Earlier results in patent publication US20250258260A1, “MEGLUMINE BASED FORMULATIONS FOR DYNAMIC NUCLEAR POLARIZATION” (THE BOARD OF REGENTS OF THE UNIVERSITY OF TEXAS SYSTEM, priority 2024, published 2025).
In brackets after ≈: the same amount, converted by molar mass. Like-named read-outs stand apart in the source and are kept apart here. Values belong to the compound of their own block, whether it stands above or below them.

Key:
[1] = at 11.7 T using water as solvent
muscle function = conditions: 18 mM in drinking water for at least 30 days

- T1 [1]: 29 s
SMILES: O=[13C](O)/C=C/[13C](=O)O [[1,4-^13C2]fumarate]

SMILES: O=C(O)/C=C/C(=O)O [fumaric acid]
- solubility in water (at 25° C.): 6000 µg/mL (≈ 51.7 mM)

SMILES: CNC[C@H](O)[C@@H](O)[C@H](O)[C@H](O)CO [meglumine]
- effect of supplementation (muscle function): favorable effect on muscle function
- solubility in water: up to 1 g/mL
